# Key:
# Assay type in all cases: in vivo
# [1] = tested on: barnyardgrass (Echinochloa crus-galli); test: Test A pre-/postemergence: barnyardgrass
# Procedure, shortened: (§1)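 Seeds were sown in loam/sand blend and sprayed preemergence (directed soil spray) and, simultaneously, postemergence at 2–10 cm, one- to two-leaf stage, using compounds in non-phytotoxic solvent with surfactant. After ~10 days in greenhouse, injury was rated visually versus untreated controls, 0 (no effect) to 100 (complete control).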
# [2] = tested on: crabgrass, large (large crabgrass, Digitaria sanguinalis); test: Test A pre-/postemergence: crabgrass, large
# Procedure, shortened: as §1
# [3] = tested on: foxtail, giant (giant foxtail, Setaria faberii); test: Test A pre-/postemergence: foxtail, giant
# Procedure, shortened: as §1
# [4] = tested on: morningglory (Ipomoea spp.); test: Test A pre-/postemergence: morningglory
# Procedure, shortened: as §1
# [5] = tested on: pigweed (Amaranthus retroflexus); test: Test A pre-/postemergence: pigweed
# Procedure, shortened: as §1
# [6] = tested on: velvetleaf (Abutilon theophrasti); test: Test A pre-/postemergence: velvetleaf
# Procedure, shortened: as §1
# [7] = tested on: wheat (Triticum aestivum); test: Test A pre-/postemergence: wheat
# Procedure, shortened: as §1
# [8] = tested on: corn (Zea mays); test: Test A pre-/postemergence: corn
# Procedure, shortened: as §1
# [9] = tested on: rice (Oryza sativa); test: Test B flooded paddy: rice; settings: Flood; 250 g ai/ha; applied to paddy water at 2-leaf stage; visually evaluated after 13 to 15 days
# Experimental: (§2) Seeds selected from rice (Oryza sativa), sedge, umbrella (small-flower umbrella sedge Cyperus difformis), ducksalad (Heteranthera limosa), and barnyardgrass (Echinochloa crus-galli) were grown to the 2-leaf stage for testing. At time of treatment, test pots were flooded to 3 cm above the soil surface, treated by application of test compounds directly to the paddy water, and then maintained at that water depth for the duration of the test.
# (§3) Treated plants and controls were maintained in a greenhouse for 13 to 15 days, after which time all species were compared to controls and visually evaluated. Plant response ratings, summarized in Table B, are based on a scale of 0 to 100 where 0 is no effect and 100 is complete control. A dash (-) response means no test result.
# [10] = tested on: sedge, umbrella (small-flower umbrella sedge Cyperus difformis); test: Test B flooded paddy: sedge, umbrella; settings: Flood; 250 g ai/ha; applied to paddy water at 2-leaf stage; visually evaluated after 13 to 15 days
# Experimental: as §2, §3
# [11] = tested on: ducksalad (Heteranthera limosa); test: Test B flooded paddy: ducksalad; settings: Flood; 250 g ai/ha; applied to paddy water at 2-leaf stage; visually evaluated after 13 to 15 days
# Experimental: as §2, §3
# [12] = tested on: barnyardgrass (Echinochloa crus-galli); test: Test B flooded paddy: barnyardgrass; settings: Flood; 250 g ai/ha; applied to paddy water at 2-leaf stage; visually evaluated after 13 to 15 days
# Experimental: as §2, §3
# [13] = Postemergence, 125 g ai/ha, 0 to 100 scale, 0 is no effect, 100 is complete control
# [14] = Postemergence, 500 g ai/ha, visual rating on 0 to 100 scale (0 no effect, 100 complete control), approximately ten days
# [15] = Preemergence, 125 g ai/ha, 0 to 100 scale (0 no effect, 100 complete control)
# [16] = Preemergence, 500 g ai/ha, 0 to 100 scale, 0 is no effect, 100 is complete control
# [17] = Preemergence, 125 g ai/ha, 0 to 100 scale where 0 is no effect and 100 is complete control
# [18] = Preemergence, 500 g ai/ha, 0 to 100 scale (0 no effect, 100 complete control)
compound,measurement,setting,value
Cc1cc(Oc2nn(-c3ccc(F)cc3)nc2C)ccc1F [Compound 86],Barnyardgrass plant response rating,[1]; [13],0
same,Barnyardgrass plant response rating,[1]; [14],0
same,"Plant response rating, Barnyardgrass",[1]; [15],0
same,"Plant response rating, Barnyardgrass",[1]; [16],0
same,"Crabgrass, Large plant response rating",[2]; [13],0
same,"Crabgrass, Large plant response rating",[2]; [14],0
same,"Plant response rating, Crabgrass, Large",[2]; [15],0
same,"Plant response rating, Crabgrass, Large",[2]; [16],0
same,"Foxtail, Giant plant response rating",[3]; [13],0
same,"Foxtail, Giant plant response rating",[3]; [14],0
same,"Plant response rating, Foxtail, Giant",[3]; [15],0
same,"Plant response rating, Foxtail, Giant",[3]; [16],0
same,Morningglory plant response rating,[4]; [13],0
same,Morningglory plant response rating,[4]; [14],0
same,"Plant response rating, Morningglory",[4]; [15],0
same,"Plant response rating, Morningglory",[4]; [16],0
same,Pigweed plant response rating,[5]; [13],0
same,Pigweed plant response rating,[5]; [14],0
same,"Plant response rating, Pigweed",[5]; [15],0
same,"Plant response rating, Pigweed",[5]; [16],0
same,Velvetleaf plant response rating,[6]; [13],0
same,Velvetleaf plant response rating,[6]; [14],0
same,"Plant response rating, Velvetleaf",[6]; [15],0
same,"Plant response rating, Velvetleaf",[6]; [16],0
same,Wheat plant response rating,[7]; [13],0
same,Wheat plant response rating,[7]; [14],0
same,"Plant response rating, Wheat",[7]; [15],0
same,"Plant response rating, Wheat",[7]; [16],0
same,Corn plant response rating,[8]; [13],0
same,Corn plant response rating,[8]; [14],0
same,"Plant response rating, Corn",[8]; [15],0
same,"Plant response rating, Corn",[8]; [16],0
same,"Plant response rating, Rice (0 to 100 scale, 0 is no effect, 100 is complete control)",[9],0
same,"Plant response rating, Sedge, Umbrella (0 to 100 scale, 0 is no effect, 100 is complete control)",[10],50
same,"Plant response rating, Ducksalad (0 to 100 scale, 0 is no effect, 100 is complete control)",[11],0
same,"Plant response rating, Barnyardgrass (0 to 100 scale, 0 is no effect, 100 is complete control)",[12],0
CCCc1nn(-c2ccc(F)cc2)nc1Cc1cccc(C(F)(F)F)c1 [Compound 149],"Plant response rating, Barnyardgrass",[1]; [13],30
same,Barnyardgrass plant response rating,[1]; [14],80
same,"Plant response rating, Barnyardgrass",[1]; [17],60
same,"Plant response rating, Barnyardgrass",[1]; [18],90
same,"Plant response rating, Crabgrass, Large",[2]; [13],80
same,"Crabgrass, Large plant response rating",[2]; [14],90
same,"Plant response rating, Crabgrass, Large",[2]; [17],90
same,"Plant response rating, Crabgrass, Large",[2]; [18],100
same,"Plant response rating, Foxtail, Giant",[3]; [13],80
same,"Foxtail, Giant plant response rating",[3]; [14],90
same,"Plant response rating, Foxtail, Giant",[3]; [17],90
same,"Plant response rating, Foxtail, Giant",[3]; [18],100
same,"Plant response rating, Morningglory",[4]; [13],90
same,Morningglory plant response rating,[4]; [14],100
same,"Plant response rating, Morningglory",[4]; [17],10
same,"Plant response rating, Morningglory",[4]; [18],30
same,"Plant response rating, Pigweed",[5]; [13],100
same,Pigweed plant response rating,[5]; [14],100
same,"Plant response rating, Pigweed",[5]; [17],90
same,"Plant response rating, Pigweed",[5]; [18],100
same,"Plant response rating, Velvetleaf",[6]; [13],60
same,Velvetleaf plant response rating,[6]; [14],100
same,"Plant response rating, Velvetleaf",[6]; [17],20
same,"Plant response rating, Velvetleaf",[6]; [18],50
same,"Plant response rating, Wheat",[7]; [13],20
same,Wheat plant response rating,[7]; [14],30
same,"Plant response rating, Wheat",[7]; [17],0
same,"Plant response rating, Wheat",[7]; [18],50
same,"Plant response rating, Corn",[8]; [13],30
same,Corn plant response rating,[8]; [14],40
same,"Plant response rating, Corn",[8]; [17],10
same,"Plant response rating, Corn",[8]; [18],20
same,"Plant response rating, Rice (0 to 100 scale, 0 is no effect, 100 is complete control)",[9],30
same,"Plant response rating, Sedge, Umbrella (0 to 100 scale, 0 is no effect, 100 is complete control)",[10],60
same,"Plant response rating, Ducksalad (0 to 100 scale, 0 is no effect, 100 is complete control)",[11],60
same,"Plant response rating, Barnyardgrass (0 to 100 scale, 0 is no effect, 100 is complete control)",[12],40

# Reference: patent US9302999B2, “Substituted triazoles as herbicides” (E. I. DU PONT DE NEMOURS AND COMPANY, priority 2012, dated 2016)
